Source: patent US12274703B2, “Compositions and methods of treatment for neurological disorders comprising a dementia” (Gliapharm SA, priority 2017, dated 2025)
Where a name gives a salt, the structure may show the parent alone. Read-outs that look alike come from different tables or passages of the source.

System: primary astrocytes
Assay: High throughput screening for lactate secretion: acidification of extracellular medium (SNARF5)
Assay type: cell-based, mouse
Details: Mus musculus, Astrocyte, 1.5 h, 10 uM, 90 min
Experimental: Primary cultures of cerebrocortical astrocytes were obtained from 1-2-day-old OF1 mouse pups (Charles River Laboratories). Briefly, cortices were isolated and minced in small pieces under a dissecting microscope. The cells were incubated for 30 min at 37° C. in a solution containing 20 U/ml of papain enzyme (Worthington Biochemical), L-cysteine 1 mM (Sigma), and 10 kU/ml DNase I (Worthington Biochemical) for an enzymatic dissociation. Papain activity was stopped by the addition of fetal calf serum (FCS) to the solution, and a single-cell suspension was then obtained by mechanical dissociation, which consisted in cells trituration in a DMEM (D7777, Sigma-Aldrich) medium (supplemented with 44 mm NaHCO3, and 10 ml/L antibiotic/antimycotic solution) containing 10% FCS. The cells were seeded at an average density of 6×10^4 cells/cm^2 in poly-D-lysine-coated 96, 12 or 6-well culture plates, depending on their use, and incubated at 37° C. in a humidified atmosphere containing 5% CO2/95% air. Culture medium was renewed twice per week. Cells were stimulated and harvested between DIV14 and DIV17, when confluence and cell growth were optimal.
Secretion of lactate in a high-throughput screening (HTS) fashion was measured indirectly through the acidification of extracellular medium. To this end, primary astrocytes grown in 96-well plates for 17 days were stimulated with the compounds as listed herein.
After washing the cells twice with stimulation medium (DMEM (D5030, Sigma), 3 mM NaHCO3 and 5 mM Glucose) at 37° C., cells were stimulated with the compounds at a final concentration of 10 uM (1% DMSO final) in 50 ul per well of stimulation medium supplemented with 10 uM of the extracellular pH sensor SNARF-5F %-(AND-6)-CAR (Life Technologies Corporation). Each compound was tested in two different plates for duplicates.
After 90 min stimulation, fluorescence was read at exc. (excitation) 480 nm/emm. (emission) 580 nm and at exc 480 nm/emm. 630 nm. The ratio of fluorescence between 630 nm and 580 emission values, which represents extracellular pH, was calculated.
In each plate, 8 wells were used for negative controls (DMSO) and 8 wells were used for positive controls (CCCP 2 uM in DMSO). Z prime values were calculated for each of the plates tested and values <0 were discarded.
The average and SD of compounds' values tested in duplicates were calculated, and compound was noted as HIT when the difference between compound's average and negative control's average was greater than three times the sum of compound's SD and negative controls' SD. Only scores greater than 40% were considered as lead hits for the CDC54K library; for the remaining libraries, all hits were considered. Scores are calculated as the % of activity compared to the positive control in each plate (which is 100%).
Primary screening hits were cherry picked on new plates and confirmed for SNARF5 effect, after having discarded those compounds that are fluorescent (exc. 480 nm/emm. 580 nm or 630 nm) before stimulation. Extracellular medium was next analyzed for extracellular lactate quantification for secondary screening.
Identification of lactate-enhancing drugs with high throughput screening (HTS) experiments on astrocytes primary cultures using extracellular pH dye (SNARF5F 5-(and 6)-carboxylic acid) for 90 min. The procedure is described in Material and Methods (2. Cell culture, 2.1. HTS for lactate secretion and 2.2. Extracellular lactate quantification).
The procedure was performed as follows: • Primary screening: acidification of the extracellular medium • Primary screening confirmation: acidification of the extracellular medium, removal of compounds with fluorescent activity at exc. 480 nm/emm. 580 nm or 630 nm. • Secondary screening: dosage of extracellular lactate

[1] = Appendix I, primary screening, relative to positive control, read-out: Score
[2] = Prestwick hits, activity relative to positive control CCCP 2 uM, read-out: Score
[3] = Prestwick hits, relative to positive control CCCP 2 uM, read-out: HTS Score (lactate)

Row | SMILES | Emax at 10 µM [1] [%] | Emax at 10 µM [2] [%] | Emax at 10 µM [3] [%]
1 | Cc1oc2ncnc(N3CCCC(C(=O)NCc4cccnc4)C3)c2c1C (centres unmarked) [F228-0351] | 59.2 | – | –
2 | O=C(NC1CC1)c1cccc(NS(=O)(=O)c2ccc(N3CCCC3=O)cc2)c1 [T5618591] | 41.6 | – | –
3 | Fc1ccc(Nc2nc(N3CCOCC3)c3ccccc3n2)cc1 [T0508-5193] | 19.5 | – | –
4 | Cc1nc2ccc(NS(=O)(=O)c3ccccc3F)cc2s1 [T5511047] | 67 | – | –
5 | Cn1nccc1C(=O)N1CCC(Nc2ncnc3c2CCC3)C1 (centres unmarked) [T636-2425] | 22 | – | –
6 | COc1ccccc1[N+]1=C2CCCCCN2C(O)(c2ccccc2)C1 (centres unmarked) [K404-0838] | 103 | – | –
7 | OC1(c2ccccc2)C[N+](c2ccccc2)=C2SCCCN21 (centres unmarked) [T0507-8442] | 26.8 | – | –
8 | COc1ccccc1[N+]1=C2CCCCCN2C(O)(c2ccc(F)cc2)C1 (centres unmarked) [F0524-0611] | 53.4 | – | –
9 | O=C(C1CCOC1)N1CCCn2nc(-c3cccc(Cl)c3)cc2C1 (centres unmarked) [P218-0884] | 0 | – | –
10 | O=S(=O)(Nc1ccc(F)c(Cl)c1)c1ccc2ccccc2c1 [T5231424] | 67.3 | – | –
11 | CCc1ccc(C2(O)C[N+](c3ccccc3OC)=C3CCCCN32)cc1 (centres unmarked) [K404-0672] | 125 | – | –
12 | CC1c2ccsc2CCN1c1ncnc2sccc12 (centres unmarked) [T5630309] | 72.2 | – | –
13 | CCN(Cc1ccccc1)S(=O)(=O)c1cc(-c2noc(C3CCCC3)n2)cs1 [L287-1758] | 0 | – | –
14 | Cc1cccc(NS(=O)(=O)c2cc(-c3ccnn3C)cs2)c1 [L924-0884] | 65.6 | – | –
15 | Cc1ccc(CN2CCN(c3ncnc4c3CCC4)CC2)o1 [T636-1937] | 74 | – | –
16 | O=C(C1CC1)N1CCc2sc(S(=O)(=O)Nc3cccc(Cl)c3)cc2C1 [P025-0462] | 38.7 | – | –
17 | Cc1nc(N2CCCC(C(=O)NCc3cccnc3)C2)c2c(C)c(C)oc2n1 (centres unmarked) [F228-0856] | 18.6 | – | –
18 | Cc1nc(-c2cccc(NS(=O)(=O)c3ccc(N4CCCC4=O)cc3)c2)cs1 [T5599698] | 85.6 | – | –
19 | Cc1ccc(S(=O)(=O)N2CCSC2c2cccc([N+](=O)[O-])c2)c(C)c1 (centres unmarked) [T5463709] | 24.4 | – | –
20 | Clc1ccc2c(c1)CCc1cccnc1C2=C1CCNCC1 [Desloratadine] | – | 6.08 | 6.1
21 | Clc1ccc(Nc2ncnc3sccc23)cc1 [T5393195] | 36.9 | – | –
22 | CCNC(=O)C1CCCN(c2ncnc3oc(C)c(C)c23)C1 (centres unmarked) [F228-0534] | 35.4 | – | –

Row | SMILES | Emax at 10 µM [1] [%] | Emax at 10 µM [2] [%] | Emax at 10 µM [3] [%]
23 | Cc1cc(/C=C/c2ccc3cc(N(C)C)ccc3[n+]2C)c(C)n1-c1ccccc1 [Pyrvinium pamoate] | – | 99.1 | 99.1
24 | Cc1cccc(NS(=O)(=O)c2cc(-c3noc(C)n3)cs2)c1 [L287-0220] | 35.2 | – | –
25 | O=S(=O)(Nc1ccc(O)c(Cl)c1)c1ccc2ccccc2c1 [T0517-8939] | 76.8 | – | –
26 | COc1ccccc1[N+]1=C2CCCCN2C(O)(c2ccc(F)cc2)C1 (centres unmarked) [F0524-0338] | 73.6 | – | –
27 | Cc1cccc([N+]2=C3CCCCN3C(O)(c3ccc(F)cc3)C2)c1C (centres unmarked) [K404-0685] | 67.9 | – | –
28 | O=C(c1cccc(F)c1)N1CCC(Nc2ncnc3c2CCC3)CC1 [T636-1601] | 0 | – | –
29 | CC(=O)N1CCc2sc(S(=O)(=O)NCc3ccccc3)cc2C1 [P025-0168] | 14.5 | – | –
30 | Cc1nc2c(c(Nc3cccc(C(F)(F)F)c3)n1)CCC2 [D278-0514] | 0 | – | –
31 | O=S(=O)(c1ccc(F)cc1)N1CCSC1c1ccccc1Cl (centres unmarked) [4052-4279] | 15.6 | – | –
32 | COc1cccc(CNc2ncnc3c2CCC3)c1 [T636-0134] | 75.1 | – | –
33 | CC(=O)N1CCCc2cc(S(=O)(=O)NCc3cccc(C(F)(F)F)c3)ccc21 [T6099519] | 27.6 | – | –
34 | CCn1nccc1-c1csc(S(=O)(=O)Nc2ccccc2OC)c1 [L924-1088] | 78.5 | – | –
35 | CC(=O)N1CCCc2cc(S(=O)(=O)NC(c3ccccc3)C(C)C)ccc21 (centres unmarked) [T6067366] | 0 | – | –
36 | COc1ccc([N+]2=C3SCCCN3C(O)(c3cccc([N+](=O)[O-])c3)C2)cc1 (centres unmarked) [K404-0277] | 0 | – | –
37 | COc1ccc(C2(O)C[N+](c3ccccc3C)=C3CCCCCN32)cc1OC (centres unmarked) [K404-0906] | 19.1 | – | –
38 | Cc1ccc(CNS(=O)(=O)c2cc(-c3noc(C4CCCC4)n3)cs2)cc1 [L287-1641] | 77.2 | – | –
39 | O=C(c1ccc(Cl)s1)N1CCC(Nc2ncnc3c2CCC3)C1 (centres unmarked) [T636-2391] | 93.2 | – | –
40 | c1coc(CNc2nc(-c3ccncc3)nc3c2CCC3)c1 [T636-0973] | 0 | – | –
41 | COc1ccccc1S(=O)(=O)Nc1ccc2nc(C)sc2c1 [T5246417] | 24.1 | – | –
42 | Cc1cccc([N+]2=C3CCCCN3C(O)(c3ccc(Cl)cc3)C2)c1 (centres unmarked) [K404-0800] | 97.3 | – | –
43 | CC(=O)N1CCc2sc(S(=O)(=O)Nc3cc(C)cc(C)c3)cc2C1 [P025-0080] | 33.1 | – | –
44 | Cc1ccccc1NS(=O)(=O)c1ccc2onc(C(=O)N3CCCCC3)c2c1 [L995-0405] | 21.3 | – | –

Row | SMILES | Emax at 10 µM [1] [%] | Emax at 10 µM [2] [%] | Emax at 10 µM [3] [%]
45 | CNC(=O)C1CCCN(c2ncnc3oc(C)c(C)c23)C1 (centres unmarked) [F228-0541] | 15.3 | – | –
46 | CCOc1ccc(C2(O)C[N+](c3cc(OC)ccc3OC)=C3CCCCCN32)cc1 (centres unmarked) [K404-0860] | 57.9 | – | –
47 | O=C(c1ccco1)N1CCCn2nc(-c3ccc(C(F)(F)F)cc3)cc2C1 [T200-0370] | 56.2 | – | –
48 | Cc1cc(S(=O)(=O)NCc2ccncc2)c(Cl)cc1Cl [T5581430] | 47.2 | – | –
49 | Cc1cccc([N+]2=C3SCCCN3C(O)(c3ccc(Cl)cc3)C2)c1 (centres unmarked) [F0522-0533] | 55.7 | – | –
50 | COc1ccccc1[N+]1=C2CCCCCN2C(O)(c2cccc([N+](=O)O)c2)C1 (centres unmarked) [K404-0842] | 16.9 | – | –
51 | O=C(C[n+]1cc(-c2ccc(Br)cc2)n2c1CCCCC2)c1ccccc1 [T0500-4648] | 109 | – | –
52 | O=S(=O)(NC1CCCC1)c1cc(-c2noc(C3CCC3)n2)cs1 [L287-1221] | 51.6 | – | –
53 | CCCCC(CC)CNC(=N)NC(=N)NCCCCCCNC(=N)NC(=N)NCC(CC)CCCC (centres unmarked) [Alexidine dihydrochloride] | – | 38.9 | 38.9
54 | Cc1oc2ncnc(N3CCCC(C(=O)NCc4ccccn4)C3)c2c1C (centres unmarked) [F228-0350] | 95.8 | – | –
55 | c1cncc(CCNc2ncnc3c2CCC3)c1 [T636-0085] | 28.4 | – | –
56 | c1ccc2c(c1)CN(c1ncnc3sccc13)CCN2 [T6768300] | 34.4 | – | –
57 | Cc1ccc(C)c([N+]2=C3CCCCN3C(O)(c3ccc(F)cc3)C2)c1 (centres unmarked) [K404-0697] | 59.6 | – | –
58 | COc1ccc(C2SCCN2S(=O)(=O)c2cccc(C)c2)cc1OC (centres unmarked) [T5463658] | 27.2 | – | –
59 | CC(=O)c1ccc(NS(=O)(=O)c2cc(-c3noc(C4CCCC4)n3)cs2)cc1 [L287-1577] | 119 | – | –
60 | Clc1ccc(COC(Cn2ccnc2)c2ccc(Cl)cc2Cl)c(Cl)c1 (centres unmarked) [Miconazole] | – | 7.35 | 7.3
61 | Cc1ccc(CNc2ncnc3c2CCC3)o1 [T636-0054] | 55.3 | – | –
62 | O=C(C[n+]1cc(-c2ccccc2)n2c1CCC2)c1ccc(Br)cc1 [T0502-5560] | 102 | – | –
63 | Cc1cccc([N+]2=C3SCCCN3C(O)(c3ccc(F)cc3)C2)c1 (centres unmarked) [K404-0394] | 34.7 | – | –
64 | FC(F)(F)c1cccc(CNc2ncnc3sccc23)c1 [T5346988] | 99.6 | – | –
65 | Cc1ccc(S(=O)(=O)N2CCSC2c2ccc([N+](=O)[O-])cc2)c(C)c1 (centres unmarked) [T5464782] | 27.7 | – | –
66 | CC(COc1ccccc1)NC(C)C(O)c1ccc(O)cc1 (centres unmarked) [Isoxsuprine hydrochloride] | – | 5.5 | 5.5
